pIC50, pKi: −log10 of the molar value. Activity calls are given as the source filed them. The rule behind the calls is not given here.
Experiments:
[1] = biological target: Kappa-type opioid receptor (Cavia porcellus) (UniProt P41144); test: Inhibition of [35S]GTP-gamma-S, binding in guines pig caudate stimulated by U69, 593 of Opioid receptor kappa 1; type: functional
[2] = biological target: Mu-type opioid receptor (Cavia porcellus) (UniProt P97266); test: Inhibition of [35S]GTP-gamma-S, binding in guines pig caudate stimulated by DAMGO for Opioid receptor mu 1; type: functional
[3] = biological target: T1, Norepinephrine transporter (Rattus norvegicus, UniProt Q9WTR4); test: Affinity for norepinephrine transporter determined by [3H]nisoxetine displacement.
[4] = biological target: Sodium-dependent dopamine transporter (Rattus norvegicus, UniProt P23977); test: Inhibition of [3H]WIN-35428 binding at dopamine transporter was determined
[5] = biological target: Sodium-dependent serotonin transporter (Rattus norvegicus, UniProt P31652); test: Inhibition of [3H]paroxetine binding at serotonin transporter was determined
[6] = biological target: T1, Norepinephrine transporter; test: Inhibition of [3H]nisoxetine binding at norepinephrine transporter
Mu-type opioid receptor = Mu-type opioid receptor (Cavia porcellus, UniProt P97266); test: Inhibition of binding of [3H]DAMGO to Opioid receptor mu 1 in guinea pig membranes; type: cell membranes
[7] = biological target: D(2) dopamine receptor (Rattus norvegicus) (UniProt P61169)
[8] = biological target: D(2) dopamine receptor (Rattus norvegicus) (UniProt P61169); conditions: Nucleus accumbens
Rattus norvegicus [9] = test: Effective dose of compound required to produce maximal locomotor activity in rat by intraperitoneal administration; type: functional; conditions: ip
Rattus norvegicus [10] = test: Time taken to produce maximal locomotor activity at 30 min period in rat by intraperitoneal administration; type: functional
Rattus norvegicus [11] = test: Time during which activity returned to baseline level in rat by intraperitoneal administration; type: functional
Rattus norvegicus [12] = test: Effective dose of compound required to produce maximal locomotor activity in cocaine-trained rat by intraperitoneal administration; type: functional; conditions: ip
Rattus norvegicus [13] = test: Maximal locomotor activity of compound compared as a percent of cocaine's effect in rat by intraperitoneal administration; type: functional
[14] = biological target: Delta-type opioid receptor (Homo sapiens) (UniProt P41143); conditions: Cavia porcellus
Sequence of Delta-type opioid receptor (Homo sapiens) (P41143 whole entry): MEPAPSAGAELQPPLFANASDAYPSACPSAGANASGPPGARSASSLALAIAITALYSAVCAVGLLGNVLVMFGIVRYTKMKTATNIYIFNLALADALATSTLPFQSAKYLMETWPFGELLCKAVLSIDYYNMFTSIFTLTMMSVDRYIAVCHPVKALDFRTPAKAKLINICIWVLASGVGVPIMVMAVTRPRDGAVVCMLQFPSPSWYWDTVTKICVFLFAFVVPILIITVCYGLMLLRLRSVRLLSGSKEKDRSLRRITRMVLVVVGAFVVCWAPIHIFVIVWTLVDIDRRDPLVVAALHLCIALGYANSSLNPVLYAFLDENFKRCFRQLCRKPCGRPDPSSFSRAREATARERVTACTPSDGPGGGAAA
Description: Inhibition of [35S]GTP-gamma-S, binding in guines pig caudate stimulated by SNC-80 to Opioid receptor delta 1

Sequence of Mu-type opioid receptor (Cavia porcellus) (P97266 whole entry): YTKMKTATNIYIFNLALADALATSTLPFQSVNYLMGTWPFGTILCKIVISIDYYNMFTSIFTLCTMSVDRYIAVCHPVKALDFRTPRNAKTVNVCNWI
Sequence of Mu-type opioid receptor (P97266 whole entry): as above
Sequence of Kappa-type opioid receptor (Cavia porcellus) (P41144 whole entry): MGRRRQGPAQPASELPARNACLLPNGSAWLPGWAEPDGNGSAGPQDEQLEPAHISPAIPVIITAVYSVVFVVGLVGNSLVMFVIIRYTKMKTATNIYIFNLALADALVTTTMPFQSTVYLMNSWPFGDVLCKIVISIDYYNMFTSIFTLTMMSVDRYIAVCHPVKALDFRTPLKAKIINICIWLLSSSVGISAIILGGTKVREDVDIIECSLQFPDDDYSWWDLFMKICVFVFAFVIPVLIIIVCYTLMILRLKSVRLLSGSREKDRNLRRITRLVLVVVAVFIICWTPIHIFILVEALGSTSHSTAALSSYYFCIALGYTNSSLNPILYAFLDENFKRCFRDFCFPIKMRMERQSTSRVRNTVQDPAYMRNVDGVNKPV
Sequence of D(2) dopamine receptor (Rattus norvegicus) (P61169 whole entry): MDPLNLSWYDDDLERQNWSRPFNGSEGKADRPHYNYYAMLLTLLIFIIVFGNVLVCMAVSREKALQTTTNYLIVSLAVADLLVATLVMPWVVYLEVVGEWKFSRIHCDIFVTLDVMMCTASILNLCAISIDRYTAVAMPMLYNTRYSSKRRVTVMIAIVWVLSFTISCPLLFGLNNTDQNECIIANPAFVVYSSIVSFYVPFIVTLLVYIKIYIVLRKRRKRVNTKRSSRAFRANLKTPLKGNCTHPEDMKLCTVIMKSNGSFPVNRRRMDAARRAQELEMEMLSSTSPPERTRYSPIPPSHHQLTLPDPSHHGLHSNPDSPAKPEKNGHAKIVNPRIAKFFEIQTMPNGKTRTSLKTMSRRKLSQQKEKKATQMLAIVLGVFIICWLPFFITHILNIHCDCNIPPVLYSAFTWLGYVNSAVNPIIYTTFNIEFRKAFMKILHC
T1 sequence (Q9WTR4 whole entry): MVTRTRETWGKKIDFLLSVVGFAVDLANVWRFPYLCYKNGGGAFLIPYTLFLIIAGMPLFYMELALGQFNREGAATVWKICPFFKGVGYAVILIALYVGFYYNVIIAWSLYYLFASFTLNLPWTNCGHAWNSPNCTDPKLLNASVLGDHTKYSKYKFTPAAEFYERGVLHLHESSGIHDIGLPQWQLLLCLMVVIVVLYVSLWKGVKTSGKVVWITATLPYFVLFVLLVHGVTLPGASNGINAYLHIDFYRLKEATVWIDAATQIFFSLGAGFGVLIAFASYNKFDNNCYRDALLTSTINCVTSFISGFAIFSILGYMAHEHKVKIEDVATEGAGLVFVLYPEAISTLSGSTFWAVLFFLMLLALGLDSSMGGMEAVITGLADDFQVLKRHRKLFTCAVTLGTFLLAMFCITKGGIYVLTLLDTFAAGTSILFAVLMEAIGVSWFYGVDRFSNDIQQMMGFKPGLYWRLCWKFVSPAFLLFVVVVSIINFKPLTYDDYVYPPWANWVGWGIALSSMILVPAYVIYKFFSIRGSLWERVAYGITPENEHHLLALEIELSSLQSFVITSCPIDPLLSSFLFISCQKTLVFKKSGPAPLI
Sequence of Sodium-dependent dopamine transporter (P23977 whole entry): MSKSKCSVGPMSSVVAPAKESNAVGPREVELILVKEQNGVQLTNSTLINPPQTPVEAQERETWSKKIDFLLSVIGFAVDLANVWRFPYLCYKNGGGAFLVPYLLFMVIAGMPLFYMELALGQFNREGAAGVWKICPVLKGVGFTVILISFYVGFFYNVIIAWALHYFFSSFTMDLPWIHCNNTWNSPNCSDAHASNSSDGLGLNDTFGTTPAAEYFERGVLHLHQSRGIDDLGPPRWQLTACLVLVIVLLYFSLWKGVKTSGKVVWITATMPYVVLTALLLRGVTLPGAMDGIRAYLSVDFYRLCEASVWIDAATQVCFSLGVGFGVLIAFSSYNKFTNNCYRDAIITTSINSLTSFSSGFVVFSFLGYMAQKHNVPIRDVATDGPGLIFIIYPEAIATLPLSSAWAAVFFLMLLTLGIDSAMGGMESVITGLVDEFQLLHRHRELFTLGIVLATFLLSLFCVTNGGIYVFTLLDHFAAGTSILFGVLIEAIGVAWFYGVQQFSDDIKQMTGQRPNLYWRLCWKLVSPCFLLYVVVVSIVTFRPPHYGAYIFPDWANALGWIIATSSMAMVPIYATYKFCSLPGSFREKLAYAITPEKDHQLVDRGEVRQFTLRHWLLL
Sequence of Sodium-dependent serotonin transporter (P31652 whole entry): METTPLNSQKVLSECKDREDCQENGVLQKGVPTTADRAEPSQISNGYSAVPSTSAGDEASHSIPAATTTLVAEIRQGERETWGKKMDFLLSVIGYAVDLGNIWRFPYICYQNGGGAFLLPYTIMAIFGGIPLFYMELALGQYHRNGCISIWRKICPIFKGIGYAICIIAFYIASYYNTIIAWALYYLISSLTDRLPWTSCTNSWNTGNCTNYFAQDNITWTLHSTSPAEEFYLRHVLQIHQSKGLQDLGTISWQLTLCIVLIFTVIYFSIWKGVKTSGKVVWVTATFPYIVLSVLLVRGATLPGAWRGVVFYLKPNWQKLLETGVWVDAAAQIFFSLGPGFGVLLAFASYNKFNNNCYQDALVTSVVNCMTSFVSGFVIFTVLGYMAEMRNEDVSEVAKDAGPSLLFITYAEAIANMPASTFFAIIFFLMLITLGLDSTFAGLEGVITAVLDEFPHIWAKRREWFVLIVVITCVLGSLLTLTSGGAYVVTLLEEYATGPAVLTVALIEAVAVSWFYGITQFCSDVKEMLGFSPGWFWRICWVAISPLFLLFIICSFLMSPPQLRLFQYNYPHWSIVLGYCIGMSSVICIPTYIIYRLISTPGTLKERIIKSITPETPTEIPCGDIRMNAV

SMILES | Ke [1] | Ke [2] | pKi [3] | pIC50 [5] | pKi [5] | pIC50 [6] | further results
CC1C2CCCC1(c1cccc(O)c1)CCN2C (stereo not given) | 105 nM | 21.2 nM | – | – | – | – | –
C=C(C)c1ccc([C@H]2C[C@H]3CCC(N3)C2C(=O)OC)cc1 (stereo not given in full) | – | – | 7.06 | 9.22 | 10.26 | 6.84 | pIC50 [4]: 7.64
COC(=O)C1C2CC[C@H](C[C@@H]1c1cccc(I)c1)N2 (stereo not given in full) | – | – | 6.02 | 7.41 | 8.44 | 5.80 | pIC50 [4]: 7.59
COC(=O)C1C2CC[C@H](C[C@@H]1c1ccc(I)cc1)N2C (stereo not given in full) | – | – | 7.67 | – | 9.42 | – | –
COC(=O)C1C2CC[C@H](C[C@H]1c1ccc(Br)cc1)N2C (stereo not given in full) | – | – | – | 7.97 | 9.02 | – | –
C[C@H]1CN(C/C=C/c2ccccc2)CC[C@@]1(C)c1cccc(O)c1 | 1.04 nM | 0.039 nM | – | – | – | – | pKi (Mu-type opioid receptor): 9.13
Cc1ccc([C@H]2C[C@H]3CCC(C2c2ccccc2)N3C)cc1 (stereo not given in full) | – | – | 6.54 | 4.96 | 6.00 | 6.32 | pIC50 [4]: 8.71
CC1CN(C)C2CCCC1(c1cccc(O)c1)C2 (stereo not given) | 76.4 nM | 25.2 nM | – | – | – | – | –
Cc1ccccc1/C=C/CN1CC[C@@](C)(c2cccc(O)c2)[C@@H](C)C1 | 0.17 nM | 0.013 nM | – | – | – | – | pKi (Mu-type opioid receptor): 9.07
C[C@H]1CN(C/C=C/c2ccccc2Cl)CC[C@@]1(C)c1cccc(O)c1 | 0.567 nM | 0.026 nM | – | – | – | – | pKi (Mu-type opioid receptor): 8.95
COC(=O)C1C2CC[C@H](C[C@H]1c1ccc(Cl)c(Cl)c1)N2C (stereo not given in full) | – | – | 7.97 | 8.50 | 9.55 | 7.74 | –
CC(C)[C@@H](CN1CC[C@@](C)(c2cccc(O)c2)[C@@H](C)C1)NC(=O)CCc1ccc(O)cc1 | 4.7 nM | 7.25 nM | – | – | – | – | –
CN1C2CC[C@@H]1C[C@H](c1ccc(Cl)cc1)C2c1cc(-c2ccccc2)no1 (stereo not given in full) | – | – | 6.52 | – | 6.66 | – | –
COC(=O)C1C2CC[C@H](C[C@@H]1c1ccc(C)c(F)c1)N2 (stereo not given in full) | – | – | 9.37 | 7.01 | 7.62 | 9.07 | pIC50 [4]: 8.05
CCc1cc(Cl)c(OC)c(C(=O)NC[C@@H]2CCCN2CC)c1O | – | – | – | – | – | – | NC [7]: inactive; NC [8]: inactive
CN1C2CCC1C(C(=O)Oc1ccccc1)C(c1ccc(Cl)cc1)C2 (stereo not given) | – | – | 5.75 | – | 6.67 | – | ED50 (Rattus norvegicus [9]): 0.93 mg/kg; Peak time (Rattus norvegicus [10]): 30 min; Time (Rattus norvegicus [11]): >4 h; ED50 (Rattus norvegicus [12]): 2.28 mg/kg; Maximal locomotor activity (% of cocaine) (Rattus norvegicus [13]): 128%
CN1[C@H]2CC[C@@H]1[C@@H](C(=O)N1CCCC1)[C@@H](c1ccc(I)cc1)C2 | – | – | 6.22 | – | 6.80 | – | –
C[C@H]1CN(CC[C@H](O)C2CCCCC2)CC[C@@]1(C)c1cccc(O)c1 | 0.33 nM | 0.021 nM | – | – | – | – | Ke [14]: 0.312 nM; pKi (Mu-type opioid receptor): 9.49
CN(C)C(=O)C1C2CC[C@H](C[C@@H]1c1ccc(Cl)cc1)N2C (stereo not given in full) | – | – | 6.25 | 5.97 | 7.01 | 6.03 | pIC50 [4]: 8.86

— ChEMBL document CHEMBL1136786, “2002 Medicinal Chemistry Division Award address: monoamine transporters and opioid receptors. Targets for addiction therapy” (J Med Chem, 2003)
